Experimental data from ChEMBL document CHEMBL1201862, “PubChem BioAssay data set” (2004).
Structures can show the parent of a compound that is named as a salt.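 Briefly, cells in 96-well plates were exposed to five compound concentrations for 48 h, and endpoints were estimated by linear interpolation. GI50 = concentration required for 50% inhibition of growth.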 The source made the active and inactive calls. Cut-off read from the data, not from the text of the source: active = GI50 up to about 1.1 µM and inactive = higher.

Assays:
Test in all cases: inhibition of tumour cell growth, NCI panel, 48 h
TK-10 = test system: TK-10
UACC-62 = test system: UACC-62
HOP-62 = test system: HOP-62
M14 = test system: M14
IGROV-1 = test system: IGROV-1
KM-20L2 = test system: KM-20L2
LOX IMVI = test system: LOX IMVI
A498 = test system: A498
OVCAR-8 = test system: OVCAR-8
HL-60 = test system: HL-60
SF-295 = test system: SF-295
ACHN = test system: ACHN
NCI-H460 = test system: NCI-H460
CCRF-CEM = test system: CCRF-CEM
SNB-19 = test system: SNB-19
SK-MEL-5 = test system: SK-MEL-5
HOP-92 = test system: HOP-92
KM12 = test system: KM12
NCI-H522 = test system: NCI-H522
MDA-MB-435 = test system: MDA-MB-435

Row | SMILES | GI50 (TK-10) | GI50 (UACC-62) | GI50 (HOP-62) | GI50 (M14) | GI50 (IGROV-1) | GI50 (KM-20L2) | GI50 (LOX IMVI) | GI50 (A498) | GI50 (OVCAR-8) | GI50 (HL-60) | GI50 (SF-295) | GI50 (ACHN) | GI50 (NCI-H460) | GI50 (CCRF-CEM) | GI50 (SNB-19) | GI50 (SK-MEL-5) | GI50 (HOP-92) | GI50 (KM12) | GI50 (NCI-H522) | GI50 (MDA-MB-435)
1 | O=C1CSc2ccncc2N1 | > 100 µM (inactive) | > 100 µM (inactive) | > 100 µM (inactive) | > 100 µM (inactive) | > 100 µM (inactive) | > 100 µM (inactive) | > 100 µM (inactive) | > 100 µM (inactive) | > 100 µM (inactive) | > 100 µM (inactive) | > 100 µM (inactive) | > 100 µM (inactive) | > 100 µM (inactive) | > 100 µM (inactive) | 8.93 µM (inactive) | > 100 µM (inactive) |  |  |  | 
2 | CC/C(=N\NS(=O)(=O)c1ccccc1)c1ccccc1 | > 100 µM (inactive) | > 100 µM (inactive) | > 100 µM (inactive) | > 100 µM (inactive) | > 100 µM (inactive) | > 100 µM (inactive) | > 100 µM (inactive) | > 100 µM (inactive) | > 100 µM (inactive) | > 100 µM (inactive) | > 100 µM (inactive) | > 100 µM (inactive) | > 100 µM (inactive) | > 100 µM (inactive) |  | > 100 µM (inactive) | > 100 µM (inactive) | > 100 µM (inactive) |  | 
3 | Cn1c(=O)c2[nH]cnc2n(CC(=O)O)c1=O | > 100 µM (inactive) | > 100 µM (inactive) | > 100 µM (inactive) | > 100 µM (inactive) | > 100 µM (inactive) | > 100 µM (inactive) |  | > 100 µM (inactive) | > 100 µM (inactive) |  |  | > 100 µM (inactive) | > 100 µM (inactive) | > 100 µM (inactive) | > 100 µM (inactive) | > 100 µM (inactive) | > 100 µM (inactive) | > 100 µM (inactive) | > 100 µM (inactive) | 
4 | COc1cccc2c1C(=O)c1c(O)c3c(c(O)c1C2=O)C[C@@](O)(C(C)=O)CC3OC1CC(OC2CC(N)C(O)C(C)O2)C(O)C(C)O1 (some centres not stated) | > 100 µM (inactive) | 66.1 µM (inactive) | 36.8 µM (inactive) | 61.7 µM (inactive) | 31.4 µM (inactive) |  | 18.4 µM (inactive) | > 100 µM (inactive) | 57.9 µM (inactive) | 10.6 µM (inactive) | 49 µM (inactive) | 38.7 µM (inactive) | 14.6 µM (inactive) | 10.5 µM (inactive) | 21.1 µM (inactive) | 35.7 µM (inactive) | 31.3 µM (inactive) | 35.8 µM (inactive) | 45.4 µM (inactive) | 56.2 µM (inactive)
5 | Cc1c2cnccc2nc2[nH]c3ccncc3c12 | 3.95 µM (inactive) | 7 µM (inactive) | 2.17 µM (inactive) | 4.5 µM (inactive) | 2.85 µM (inactive) |  | 2.29 µM (inactive) | 5.47 µM (inactive) | 6.98 µM (inactive) | 19.9 µM (inactive) | 6.84 µM (inactive) | 1.59 µM (inactive) | 2.16 µM (inactive) | 5.75 µM (inactive) | 13.7 µM (inactive) | 5.69 µM (inactive) | 3.78 µM (inactive) | 6.79 µM (inactive) | 3.91 µM (inactive) | 6.46 µM (inactive)
6 | CCOC(=O)c1sc2c(C(=O)OCC)n3cc(C)cc(C)c3c2c1O | > 100 µM (inactive) | > 100 µM (inactive) |  | > 100 µM (inactive) | > 100 µM (inactive) | > 100 µM (inactive) | > 100 µM (inactive) |  | > 100 µM (inactive) |  | > 100 µM (inactive) | > 100 µM (inactive) | > 100 µM (inactive) | > 100 µM (inactive) | > 100 µM (inactive) | > 100 µM (inactive) | 76.4 µM (inactive) | > 100 µM (inactive) | 80.4 µM (inactive) | 
7 | N#Cc1c(-c2ccc(Cl)cc2Cl)nc2[nH]nc(S)n2c1=O | > 100 µM (inactive) | > 100 µM (inactive) | > 100 µM (inactive) | > 100 µM (inactive) | > 100 µM (inactive) |  | > 100 µM (inactive) | > 100 µM (inactive) | > 100 µM (inactive) | > 100 µM (inactive) | > 100 µM (inactive) | > 100 µM (inactive) | > 100 µM (inactive) | > 100 µM (inactive) | > 100 µM (inactive) | > 100 µM (inactive) | > 100 µM (inactive) | > 100 µM (inactive) | > 100 µM (inactive) | > 100 µM (inactive)
8 | COC(=O)C1=CO[C@@H](C)[C@@H]2Cn3ccc4c5ccccc5nc-4c3C[C@H]12 [ALSTONINE HYDROCHLORIDE] | > 100 µM (inactive) | > 100 µM (inactive) | > 100 µM (inactive) | > 100 µM (inactive) | > 100 µM (inactive) | > 100 µM (inactive) | > 100 µM (inactive) | > 100 µM (inactive) | > 100 µM (inactive) |  | > 100 µM (inactive) | > 100 µM (inactive) | > 100 µM (inactive) | > 100 µM (inactive) | > 100 µM (inactive) | 61.2 µM (inactive) | 92.9 µM (inactive) |  | 51.6 µM (inactive) | 
9 | O=[N+]([O-])c1ccc(N/N=C/c2ccc(OCCCCCCCCCCCO)cc2)c([N+](=O)[O-])c1 | 5.19 µM (inactive) | 2.32 µM (inactive) | 4.39 µM (inactive) | 1.39 µM (inactive) | 6.05 µM (inactive) |  | 7.64 µM (inactive) | 36 µM (inactive) | 2.71 µM (inactive) | 5.56 µM (inactive) | 3.24 µM (inactive) | 9.2 µM (inactive) | 2.5 µM (inactive) | 3.91 µM (inactive) | 6.12 µM (inactive) | 1.77 µM (inactive) | 4.82 µM (inactive) | 2.75 µM (inactive) | 2.35 µM (inactive) | 2.48 µM (inactive)
10 | Clc1cc(-c2ccccc2)nc2ccccc12 | 34 µM (inactive) | 42.6 µM (inactive) | > 100 µM (inactive) | 37.6 µM (inactive) | 15.1 µM (inactive) |  | 40 µM (inactive) | 33 µM (inactive) | 59.7 µM (inactive) | 22.5 µM (inactive) | 38.4 µM (inactive) | 38.5 µM (inactive) | 35.5 µM (inactive) | 23.8 µM (inactive) | 88.7 µM (inactive) | 18.1 µM (inactive) | 36.8 µM (inactive) | 28.1 µM (inactive) | 17 µM (inactive) | 26.2 µM (inactive)
11 | COc1cc2c(OC)c(c1)CCCC1=CC(=O)C=C(CCC2)C1=O | > 100 µM (inactive) | 31.8 µM (inactive) | 78.7 µM (inactive) | 26.7 µM (inactive) | 40.8 µM (inactive) |  | 16.6 µM (inactive) | > 100 µM (inactive) | 20.4 µM (inactive) | 6.1 µM (inactive) | 50.2 µM (inactive) | 47.5 µM (inactive) | 41.9 µM (inactive) | 3.09 µM (inactive) | 29.4 µM (inactive) | 30.3 µM (inactive) | 5.6 µM (inactive) | 21.9 µM (inactive) | 21 µM (inactive) | 23.8 µM (inactive)
12 | O=C1Nc2cccc(Cl)c2/C1=C\c1c(Cl)nc2n1CCS2 | 60.7 µM (inactive) | 73.5 µM (inactive) | > 100 µM (inactive) | > 100 µM (inactive) | > 100 µM (inactive) |  | > 100 µM (inactive) | > 100 µM (inactive) | > 100 µM (inactive) | > 100 µM (inactive) | > 100 µM (inactive) | > 100 µM (inactive) | > 100 µM (inactive) | > 100 µM (inactive) | > 100 µM (inactive) | > 100 µM (inactive) | 56.9 µM (inactive) | > 100 µM (inactive) | > 100 µM (inactive) | 35.1 µM (inactive)
13 | Cc1cccc2nc3cccc(C(=O)NCCC[N+](C)(CCCNC(=O)c4cccc5nc6cccc(C)c6nc45)Cc4c([N+](=O)[O-])ncn4C)c3nc12 | 43.9 µM (inactive) | 0.853 µM (active) | 0.993 µM (active) | 9.68 µM (inactive) | 11.1 µM (inactive) |  | 0.0908 µM (active) | 0.979 µM (active) | 0.0859 µM (active) | 0.199 µM (active) | 1.35 µM (inactive) | 0.136 µM (active) | 0.0632 µM (active) | 47 µM (inactive) | > 1100 µM (inactive) | 1.95 µM (inactive) | 23.9 µM (inactive) | 0.0912 µM (active) | 2.1 µM (inactive) | 5.13 µM (inactive)
14 | COc1cc2c(cc1C)NC(=O)/C2=C/c1c(Cl)[nH]c2ccccc12 | 10.4 µM (inactive) | 3.57 µM (inactive) | 3.28 µM (inactive) | 3.21 µM (inactive) | 3.3 µM (inactive) |  | 4.48 µM (inactive) | 4.57 µM (inactive) | 11.8 µM (inactive) | 2.39 µM (inactive) | 1.77 µM (inactive) | 10.6 µM (inactive) | 3.92 µM (inactive) | 3.56 µM (inactive) | 4.5 µM (inactive) | 3.15 µM (inactive) | 11.2 µM (inactive) | 3.1 µM (inactive) | 6.75 µM (inactive) | 1.62 µM (inactive)
15 | CCOC(=O)NC(Nc1cccc(F)c1)(C(F)(F)F)C(F)(F)F | > 100 µM (inactive) | 86.5 µM (inactive) | > 100 µM (inactive) | > 100 µM (inactive) | > 100 µM (inactive) |  | > 100 µM (inactive) | > 100 µM (inactive) | > 100 µM (inactive) | > 100 µM (inactive) | > 100 µM (inactive) | > 100 µM (inactive) | > 100 µM (inactive) | > 100 µM (inactive) | > 100 µM (inactive) | > 100 µM (inactive) | > 100 µM (inactive) | > 100 µM (inactive) | > 100 µM (inactive) | > 100 µM (inactive)
